Here are results for four compounds from US8115014B2, “Ethynylindole compounds” (ONO Pharmaceuticals, Co., Ltd., priority 2008, dated 2012).

Assay [1] has as its target T1, human cysLT1 receptor (Homo sapiens, UniProt Q9Y271).
T1 construct: expressed in transfected cells; host or cells: Chinese hamster ovary (CHO) cells
T1 sequence (Q9Y271 1-337): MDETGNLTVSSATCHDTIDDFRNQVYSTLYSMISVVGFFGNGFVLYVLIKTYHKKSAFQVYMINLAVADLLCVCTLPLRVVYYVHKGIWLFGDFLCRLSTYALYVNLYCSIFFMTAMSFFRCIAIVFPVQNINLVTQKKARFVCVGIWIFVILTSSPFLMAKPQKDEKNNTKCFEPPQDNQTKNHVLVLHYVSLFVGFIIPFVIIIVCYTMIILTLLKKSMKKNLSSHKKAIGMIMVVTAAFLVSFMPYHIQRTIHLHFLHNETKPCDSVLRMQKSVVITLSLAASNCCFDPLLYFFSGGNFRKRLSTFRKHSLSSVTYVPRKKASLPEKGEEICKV
As to the kind of experiment: Effects of compounds on LTD4-induced increase in intracellular calcium levels, CHO cells expressing the human cysLT1 receptor. The format is cell-based. The conditions noted are these: 100 nM LTD4, compound applied 30 minutes prior, read-out: IC50 (50% inhibitory concentration), LTD4-induced intracellular calcium influx. The procedure:
(§1) Chinese hamster ovary (CHO) cells expressing the human cysLT1 receptor were seeded at a density of 0.4×10^5 cells/well into a 96-well plate and cultured in an F-12 medium at 37° C. in the presence of 5% CO2 for 24 hours. The cells were incubated in the culture medium containing 7.5 μM Fura2-AM, 20 mM 2-[4-(2-hydroxyethyl)-1-piperazinyl]ethanesulfonic acid (HEPES) and 2.5 mM probenecid, at 37° C. for about 60 minutes. The Fura2-AM-loaded cells were washed once with assay buffer (Hank's buffer containing 20 mM HEPES), and the LTD4-induced intracellular calcium influx was measured using a FDSS2000 (manufactured by Hamamatsu Photonics K.K.). The compounds of the present invention were applied 30 minutes prior to LTD4 stimulation, and time-course changes of the response provoked by 100 nM of LTD4 was measured over 150 seconds.
In general terms: A change in cytosolic calcium serves as a functional read-out for many receptors and channels.

For assay [2], the target named is T2, human cysLT2 receptor (Homo sapiens, UniProt Q9NS75).
T2 construct: expressed in transfected cells; host or cells: HEK293 cells
T2 sequence (Q9NS75 1-346): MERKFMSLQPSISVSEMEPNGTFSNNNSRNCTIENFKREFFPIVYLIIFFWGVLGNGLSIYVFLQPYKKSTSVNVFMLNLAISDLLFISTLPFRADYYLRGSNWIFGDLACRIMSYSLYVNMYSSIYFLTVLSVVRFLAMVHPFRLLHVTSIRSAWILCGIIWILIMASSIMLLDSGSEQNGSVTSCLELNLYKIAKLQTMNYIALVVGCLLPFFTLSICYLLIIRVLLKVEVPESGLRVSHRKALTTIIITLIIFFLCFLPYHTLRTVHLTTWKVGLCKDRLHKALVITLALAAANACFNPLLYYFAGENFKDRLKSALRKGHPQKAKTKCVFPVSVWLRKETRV
As to the kind of experiment: Effects of compounds on LTD4-induced increases in intracellular calcium levels, HEK293 cells expressing the human cysLT2 receptor. In kind it is cell-based. Conditions: 100 nM LTD4, compound applied 30 minutes prior, read-out: IC50 (50% inhibitory concentration), LTD4-induced intracellular calcium influx. The procedure: as §1, with “The” for “Chinese hamster ovary (CHO) cells expressing the human cysLT1 receptor were seeded at a density of 0.4×10^5 cells/well into a 96-well plate and cultured in an F-12 medium at 37° C. in the presence of 5% CO2 for 24 hours. The”

With `Cc1c(CCCC(=O)O)c2cccc(C#Cc3ccc(OCCCCc4c(F)c(F)c(F)c(F)c4F)cc3)c2n1CCCC(=O)O` [Example 9, 4,4′-[2-methyl-7-({4-[4-(pentafluorophenyl)butoxy]phenyl}ethynyl)-1H-indole-1,3-diyl]dibutanoic Acid], the IC50 turned out to be 1100 pM in assay [1] and 2800 pM in assay [2].
The corresponding values for `Cc1c(CCCC(=O)O)c2cccc(C#Cc3ccc(OCCCCc4cc(F)c(F)c(F)c4F)cc3)c2n1CC(=O)O` [Example 11, 4-[1-(carboxymethyl)-2-methyl-7-({4-[4-(2,3,4,5-tetrafluorophenyl)butoxy]phenyl}ethynyl)-1H-indol-3-yl]butanoic Acid] are 210 pM and 770 pM.
The corresponding values for `Cc1c(Cl)cccc1CCCCOc1ccc(C#Cc2cccc3c(CC4(CC(=O)O)CC4)c(C)n(CC(=O)O)c23)cc1` [Example 21 (1), (1-{[1-(carboxymethyl)-7-({4-[4-(3-chloro-2-methylphenyl)butoxy]phenyl}ethynyl)-2-methyl-1H-indol-3-yl]methyl}cyclopropyl)acetic Acid] are 160 pM and 2100 pM.
As to `Cc1c(F)cccc1CCCCOc1ccc(C#Cc2cccc3c(CC4(CC(=O)O)CC4)c(C)n(CC(=O)O)c23)cc1` [Example 21 (2), [3-{[1-(carboxymethyl)cyclopropyl]methyl}-7-({4-[4-(3-fluoro-2-methylphenyl)butoxy]phenyl}ethynyl)-2-methyl-1H-indol-1-yl]acetic Acid], the results for the IC50 in assay [1] and in assay [2] were 240 pM and 2900 pM, respectively.
